Source: patent US20260101897A1, “PLANT ENVIRONMENTAL STRESS TOLERANCE IMPROVEMENT AGENT AND ENVIRONMENTAL STRESS TOLERANCE IMPROVEMENT METHOD” (priority 2022, published 2026)

Tests used:
Format in all cases: in vivo
[1] = test system: strawberry (wild strawberry); experiment: Evaluation Example 14: tolerance to freezing stress, plant mortality; settings: for Environmental stress suppressing rate: freezing stress Yes
Description: EGT (Example 18, Comparative Example 60) or GB (Comparative Examples 59 and 61) was prepared so as to have the concentration shown in Table 14 below. EGT and GB were commercially available products, and pure water was used as a solvent.
5 mL of pure water was added to 9-cm petri dishes on which filter paper was placed, and 10 seeds of strawberry (wild strawberry) were seeded per dish. They were located in a growth chamber set at room temperature of 22° C., and the light period was 16 hours and the dark period was 8 hours. The light conditions were set such that the light intensity was 5000 lx in the central part under irradiation with the fluorescent lamp.
On the 15th day after seeding, pure water in the petri dish was removed, and then 5 mL of EGT or 5 mL of GB was added, and 9 days after that, freezing stress was applied by exposure to an environment of −20° C. for 20 minutes.
The surviving plants were counted 3 days after the freezing stress was applied, and the mortality rate of the plants was evaluated as an index of physiological disorder. The mortality rate and the environmental stress suppressing rate were calculated according to the following formulas.

turf (Manila grass) = experiment: Evaluation Example 8: tolerance to drying stress, leaf mortality; settings: for Leaf mortality rate: test compound 0.1 mM (12.5 mL), water supply stopped 7 days twice; for Leaf mortality rate / Environmental stress suppressing rate: drying stress Yes; for Environmental stress suppressing rate: test compound 0.1 mM
Description: EGT and GB were commercially available products, and pure water was used as a solvent.
In a plastic pot having a diameter of 135 mm and a height of 110 mm, 1 L of a raising seedling culture soil (manufactured by Kanetaki Co., Ltd.) was placed, and 100 mm square of turf (Manila grass) was planted per pot.
They were managed in a greenhouse set at room temperature of 25° C. 12.5 mL of EGT or 12.5 mL of GB was added about one month after planting, and water supply was stopped for 7 days thereafter. After cultivation under water supply for 7 days, drying stress was applied by stopping water supply for 7 days again.
The dead leaves of turf to which the drying stress was applied were counted, and the leaf mortality rate was evaluated as an index of physiological disorder. The leaf mortality rate and the environmental stress suppressing rate were calculated according to the following formulas.

rapeseed = experiment: Evaluation Example 9: tolerance to excessive water stress, plant mortality; settings: for Environmental stress suppressing rate: excessive water stress Yes
Description: EGT (Example 11, Comparative Example 31) or GB (Comparative Examples 30 and 32) was prepared so as to have a concentration shown in Table 9 below. EGT and GB were commercially available products, and pure water was used as a solvent.
(§1) 5 mL of pure water was added to 9-cm petri dishes on which filter paper was placed, and 12 rapeseed seeds were seeded per petri dish. They were located in a growth chamber set at room temperature of 22° C., and the light period was 16 hours and the dark period was 8 hours. The light conditions were set such that the light intensity was 5000 lx in the central part under irradiation with the fluorescent lamp.
On the sixth day after seeding, pure water in the petri dish was removed, 5 mL of EGT or 5 mL of GB was added to the petri dish, and one day after that, 50 mL of pure water was added to the petri dish to apply excessive water stress.
5 The surviving plants were counted 19 days after the excessive water stress was applied, and the mortality rate of the plants was evaluated as an index of physiological disorder. The mortality rate and the environmental stress suppressing rate were calculated according to the following formulas.

broccoli = experiment: Evaluation Example 13: tolerance to freezing stress, plant mortality; settings: for Environmental stress suppressing rate: freezing stress Yes
Description: EGT (Example 17, Comparative Example 55) or GB (Comparative Examples 54 and 56) was prepared so as to have the concentration shown in Table 13 below. EGT and GB were commercially available products, and pure water was used as a solvent.
5 mL of pure water was added to 9-cm petri dishes on which filter paper was placed, and 10 broccoli seeds were seeded per petri dish. They were located in a growth chamber set at room temperature of 22° C., and the light period was 16 hours and the dark period was 8 hours. The light conditions were set such that the light intensity was 5000 lx in the central part under irradiation with the fluorescent lamp.
On the 6th day after seeding, pure water in the petri dish was removed, and then, 5 mL of EGT or 5 mL of GB was added to the petri dish, and freezing stress was applied by, 14 days after the addition, a first exposure to an environment of −20° C. for 20 minutes, and, 1 day after the first exposure, a second exposure to an environment of −20° C. for 20 minutes.
The surviving plants were counted 24 hours after the freezing stress was applied, and the mortality rate of the plants was evaluated as an index of physiological disorder. The mortality rate and the environmental stress suppressing rate were calculated according to the following formulas.

arugula = experiment: Evaluation Example 15: tolerance to low temperature stress, leaf wilting; settings: for Environmental stress suppressing rate: low temperature stress Yes
Description: EGT (Examples 19 and 20, Comparative Examples 66 and 67) or GB (Comparative Example 64, 65, 68 and 69) was prepared so as to have a concentration shown in Table 15 below. EGT and GB were commercially available products, and pure water was used as a solvent.
as §1, with “1 mL” for “5 mL”, “to 3.5-cm” for “to 9-cm”, “and 5 arugula” for “and 12 rapeseed”
On the 4th day after seeding, pure water in the petri dish was removed, and then 1 mL of EGT or 1 mL of GB was added, and 24 hours after that, low temperature stress was applied by exposure to an environment of 4° C. for 48 hours.
The number of wilted arugula leaves was evaluated 3 days after the low temperature stress was applied. The leaf wilting rate and the environmental stress suppressing rate were calculated according to the following formulas.

[2] = test compound 0.1 mM (5 mL), freezing stress Yes (−20° C. for 20 minutes), 3 days after stress
[3] = test compound 0.1 mM, freezing stress No
[4] = test compound 0.1 mM (5 mL), excessive water stress Yes (50 mL pure water per petri dish), 19 days after stress
[5] = test compound 0.1 mM, excessive water stress No
[6] = test compound 0.1 mM (5 mL), freezing stress Yes (−20° C. for 20 minutes, twice), 24 hours after stress
[7] = test compound 0.1 mM (1 mL), low temperature stress Yes (4° C. for 48 hours), 3 days after stress
[8] = test compound 0.1 mM, low temperature stress No
[9] = test compound 1 mM (1 mL), low temperature stress Yes (4° C. for 48 hours), 3 days after stress
[10] = test compound 1 mM, low temperature stress No

## C[N+](C)(C)[C@@H](Cc1c[nH]c(=S)[nH]1)C(=O)[O-] [EGT, L-(+)-ergothioneine]
[1]; [2]
  Mortality rate: 29%
[1]; [3]
  Mortality rate: 0%
[1]; test compound 0.1 mM
  Environmental stress suppressing rate: 54%
Turf (Manila grass)
  Leaf mortality rate: 35%
  Environmental stress suppressing rate: 65%
rapeseed; [4]
  Mortality rate: 25%
rapeseed; [5]
  Mortality rate: 0%
rapeseed; test compound 0.1 mM
  Environmental stress suppressing rate: 58%
broccoli; [6]
  Mortality rate: 38%
broccoli; [3]
  Mortality rate: 0%
broccoli; test compound 0.1 mM
  Environmental stress suppressing rate: 56%
arugula; [7]
  Leaf wilting rate: 0%
arugula; [8]
  Leaf wilting rate: 0%
arugula; test compound 0.1 mM
  Environmental stress suppressing rate: 100%
arugula; [9]
  Leaf wilting rate: 0%
arugula; [10]
  Leaf wilting rate: 0%
arugula; test compound 1 mM
  Environmental stress suppressing rate: 100%

## C[N+](C)(C)CC(=O)[O-] [GB, glycine betaine, reference compound]
[1]; 0.1 mM, freezing stress
  mortality rate due to freezing stress, result in words: not suppressed
[1]; [2]
  Mortality rate: 63%
[1]; [3]
  Mortality rate: 0%
[1]; test compound 0.1 mM
  Environmental stress suppressing rate: 0%
Turf (Manila grass); 0.1 mM, drying stress
  mortality rate due to drying stress, result in words: not suppressed
Turf (Manila grass)
  Leaf mortality rate: 100%
  Environmental stress suppressing rate: 0%
rapeseed; 0.1 mM, excessive water stress
  mortality rate due to excessive water stress, result in words: not suppressed
rapeseed; [4]
  Mortality rate: 60%
rapeseed; [5]
  Mortality rate: 0%
rapeseed; test compound 0.1 mM
  Environmental stress suppressing rate: 0%
broccoli; 0.1 mM, freezing stress
  mortality rate due to freezing stress, result in words: not suppressed
broccoli; [6]
  Mortality rate: 100%
broccoli; [3]
  Mortality rate: 0%
broccoli; test compound 0.1 mM
  Environmental stress suppressing rate: 0%
arugula; GB 1 mM and 0.1 mM, low temperature stress
  leaf wilting rate due to low temperature stress, result in words: hardly suppressed
arugula; [7]
  Leaf wilting rate: 60%
arugula; [8]
  Leaf wilting rate: 0%
arugula; test compound 0.1 mM
  Environmental stress suppressing rate: 10%
arugula; [9]
  Leaf wilting rate: 60%
arugula; [10]
  Leaf wilting rate: 0%
arugula; test compound 1 mM
  Environmental stress suppressing rate: 10%
